Laboratory results from patent US11970483B2, “Heterocyclic compound” (Takeda Pharmaceutical Company Limited, priority 2018, dated 2024).

Legend:
[1] = biological target: T1, human M1 receptor (hCHRM1) (Homo sapiens, UniProt P11229); experiment: Measurement of M1 receptor positive allosteric modulator (M1PAM) activity (IP1 HTRF, in presence of EC20 acetylcholine); type: cell-based; details: CHO-K1 cells stably expressing hCHRM1; acetylcholine at EC20 concentration; IP1 readout
T1 construct: expressed in transfected cells
T1 sequence (P11229 1-460): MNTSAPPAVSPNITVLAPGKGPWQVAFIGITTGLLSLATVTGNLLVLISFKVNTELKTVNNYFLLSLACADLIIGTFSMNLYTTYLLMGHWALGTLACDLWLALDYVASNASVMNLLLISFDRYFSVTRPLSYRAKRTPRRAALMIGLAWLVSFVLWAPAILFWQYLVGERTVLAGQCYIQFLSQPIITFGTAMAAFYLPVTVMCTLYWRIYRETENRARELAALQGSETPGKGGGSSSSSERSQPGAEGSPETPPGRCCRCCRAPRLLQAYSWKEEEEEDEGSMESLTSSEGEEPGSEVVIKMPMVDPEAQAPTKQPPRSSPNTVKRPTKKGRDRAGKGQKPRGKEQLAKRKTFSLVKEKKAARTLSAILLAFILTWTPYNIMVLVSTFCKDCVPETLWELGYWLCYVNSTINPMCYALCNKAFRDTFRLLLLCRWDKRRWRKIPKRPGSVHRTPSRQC
Method: Measurement of M1 Receptor Positive Allosteric Modulator (M1PAM) Activity
The activity of a test compound in the presence of acetylcholine at an EC20 concentration affording about 20% action of the maximum activity was measured as PAM activity.
The method therefor is as follows. To a 384-well white plate (Greiner) was added 4 μL of the test compound diluted with IP1 Stimulation buffer (CisBio) containing 0.1% fatty acid-free BSA containing 80 nM acetylcholine. Freeze stock of CHO-K1 cells stably expressing human M1 receptor (hCHRM1) was prepared with IP1 Stimulation buffer (CisBio) containing 0.1% fatty acid-free BSA, 4 μL thereof was added (10,000 cells/well) and the mixture was cultured in a 5% CO2 incubator at 37° C. for 1 hr. 4 μL of a solution (CisBio) containing IP1-d2 and Anti-IP1-cryptate Tb conjugate was added, the mixture was incubated at room temperature for 1 hr, and the time-resolved fluorescence signal was measured on an Envision plate reader (PerkinElmer). The activity (%) of the test compound was calculated by defining the value when acetylcholine was added at the final concentration of 20 μM as 100% and the value when DMSO was added instead of the test compound under acetylcholine-free conditions as 0%, and the EC50 value was calculated as a value of 50% of the concentration dependence curve of the test compound.

[2] = Rat PK test (cassette dosing); type: in vivo; details: male SD rats, plasma; for clearance / MRT: intravenous 0.1 mg/kg, 10 compounds cassette; for clearance: read-out: CL total (total clearance) (converted); for MRT: read-out: MRT iv (mean residence time, intravenous administration); for Tmax: oral administration 1 mg/kg, 5 compounds cassette, read-out: Tmax (time to reach maximum plasma concentration)
Method: As the rat, 8-week-old male SD rats (Japan SLC, Inc.) were used. They were fed on a solid commercially available diet (CE-2, CLEA Japan, Inc.) and allowed to freely ingest tap water as the drinking water. An intravenous administration solution for the rats was prepared by weighing a test compound, dissolving same in dimethylacetamide (DMA) (Wako Pure Chemical Industries, Ltd.), adding the same volume of 1,3-butanediol (Wako Pure Chemical Industries, Ltd.) and mixing by stirring to give a DMA:1,3-butanediol (1:1, v/v) solution. An oral administration solution was prepared by weighing a test compound, pulverizing same in an agate mortar, and gradually adding 0.5 w/v % aqueous methylcellulose solution to give a suspension. For intravenous administration, the solution was administered into femoral vein of the rats at 0.1 mg/0.5 mL/kg (salt converted to free form). For oral administration, the suspension was administered to the rats at 1 mg/5 mL/kg (salt converted to free form). The cassette dosing method was used for the both administration routes, and the test compound was administered in the following manner.
Compound of Example 1 (intravenous: 10 compounds cassette administration, oral: 5 compounds cassette administration)
Compound of Example 27 (intravenous: 10 compounds cassette administration, oral: 5 compounds cassette administration)
Compound of Example 28 (intravenous: 10 compounds cassette administration, oral: 5 compounds cassette administration)
Compound of Example 29 (intravenous: 10 compounds cassette administration, oral: 5 compounds cassette administration)
In the case of intravenous administration, blood samples were collected from the tail vein at 5, 10, 15, 30 min, 1, 2, 4, 8 hr after administration, an anticoagulation treatment with heparin sodium (Shimizu Pharmaceutical Co., Ltd.) was performed, and plasma was collected after centrifugation and subjected to the measurement of drug concentration. In the case of oral administration, blood samples were collected from the tail vein at 15, 30 min, 1, 2, 4, 8 hr after administration, an anticoagulation treatment with heparin sodium was performed, and plasma was collected after centrifugation and subjected to the measurement of drug concentration.
All drug concentrations were measured by LC-MS/MS analysis. For a pharmacokinetics test, the plasma (50 μL) was placed in a tube, acetonitrile (150 μL) containing internal standard solution was added and they were mixed on a vortex mixer. Thereafter, the mixture was centrifuged (5000 rpm, 5 min, 4° C.). The supernatant (60 μL) after centrifugation was added to 10 mmol/L ammonium formate (160 μL) added earlier and mixed therewith. This sample was injected to LC/MS/MS. The HPLC system used was Shimadzu LC-20A (Shimadzu Corporation), the column used was Unison UK-C18 HT (3.0 μm, 2.0×20 mm, Imtakt) at 50° C., and 10 mmol/L ammonium formate, 0.2% formic acid as mobile phase A and acetonitrile, 0.2% formic acid as mobile phase B were fed each at a flow rate of 1.2 mL/min under gradient conditions of (B concentration: 0 min→0.1 min, 5%, 0.1→0.75 min, 5-99%, 0.75→1.15 min, 99%, 1.15→1.16 min, 5%, 1.16→1.5 min, 5%). MS/MS used was AB Sciex TQ5500-MPX (Applied Biosystems).
Tmax: time to reach maximum plasma concentration
iv: intravenous administration
CL total: total clearance

Male SD rats = experiment: Rat defecation experiment; type: in vivo; details: oral, mean±standard error
Method: Rat Defecation Experiment
Male SD rats (5-6 weeks old) were used after an acclimation period for about 1 week. A test drug (1 mg/kg or 3 mg/kg) was suspended in 0.5% methylcellulose solution and orally administered at a volume of 5 mL/kg, and the number of feces 2 hr later was counted. Only 0.5% methylcellulose was administered to a solvent administration group.

Structure (SMILES)	EC50 [1] [nM]	clearance [2] [mL/min/kg]	MRT [2] [min]	Tmax [2] [min]	number of feces 2 hr later (Male SD rats; 1 mg/kg)	number of feces 2 hr later (Male SD rats; 3 mg/kg)
Cc1c(Cc2ccc(-c3cn(C)nn3)cc2)cc(C(=O)N[C@H]2CCOC[C@@H]2O)c2c1CCO2 [Example 1, 1,5-anhydro-2,3-dideoxy-3-[(4-methyl-5-{[4-(1-methyl-1H-1,2,3-triazol-4-yl)phenyl]methyl}-2,3-dihydro-1-benzofuran-7-carbonyl)amino]-L-threo-pentitol]	7.9	3.08	108	60	–	–
COCCNC(=O)c1ccc(Cc2cc(C(=O)N[C@H]3CCOC[C@@H]3O)c3c(c2C)CCO3)cc1F [Example 27, 1,5-anhydro-2,3-dideoxy-3-{[5-({3-fluoro-4-[(2-methoxyethyl)carbamoyl]phenyl}methyl)-4-methyl-2,3-dihydro-1-benzofuran-7-carbonyl]amino}-L-threo-pentitol]	14	19.6	42	60	–	–
Cc1c(Cc2ccc(C(=O)NCC(=O)N(C)C)c(F)c2)cc(C(=O)N[C@H]2CCOC[C@@H]2O)c2c1CCO2 [Example 28, 1,5-anhydro-2,3-dideoxy-3-({5-[(4-{[2-(dimethylamino)-2-oxoethyl]carbamoyl}-3-fluorophenyl)methyl]-4-methyl-2,3-dihydro-1-benzofuran-7-carbonyl}amino)-L-threo-pentitol]	8.6	18.9	36	48	8.0 ± 1.0	8.1 ± 1.4
Cc1c(Cc2ccc(C(=O)NC[C@H]3CCCO3)c(F)c2)cc(C(=O)N[C@H]2CCOC[C@@H]2O)c2c1CCO2 [Example 29, 1,5-anhydro-2,3-dideoxy-3-[(5-{[3-fluoro-4-({[(2R)-oxolan-2-yl]methyl}carbamoyl)phenyl]methyl}-4-methyl-2,3-dihydro-1-benzofuran-7-carbonyl)amino]-L-threo-pentitol]	11	27.5	36	30	5.0 ± 0.8	9.0 ± 0.7
